# Biological target: T1, human EGF-R (Homo sapiens, UniProt P00533)
# T1 construct: expressed in transfected cells; host or cells: F/L-HERc cells (murine IL-3-dependent FDC-P1 line transduced with retroviral vector LXSN carrying human EGF-R cDNA; packaging line GP+E86)
# Experiment: Inhibition of EGF-dependent proliferation of F/L-HERc cells
# Assay type: cell-based
# Settings: F/L-HERc cells (murine IL-3-dependent line expressing human EGF-R), stimulated with EGF 20 ng/ml, 48 hours, Cell Titer 96 AQueous assay
# Description: A cell line of murine origin dependent on interleukin-3-(IL-3) which was genetically modified to express functional human EGF-R was used here. The proliferation of these cells known as F/L-HERc can therefore be stimulated either by murine IL-3 or by EGF (cf. T. von Rüiden et al. in EMBO J. 7, 2749-2756 (1988) and J. H. Pierce et al. in Science 239, 628-631 (1988)).
# The starting material used for the F/L-HERc cells was the cell line FDC-P1, the production of which has been described by T. M. Dexter et al., J. Exp. Med. 152 1036-1047 (1980). Alternatively, however, other growth-factor-dependent cells may also be used (cf., e.g., J. H. Pierce et al., Science 239, 628-631 (1988); H. Shibuya et al., Cell 70, 57-67 (1992); and W. S. Alexander et al., EMBO J. 10, 3683-3691 (1991)). For expressing the human EGF-R cDNA (cf. A. Ullrich et al., Nature 309, 418-425 (1984)) recombinant retroviruses were used as described by T. von Rüiden et al., EMBO J. 7, 2749-2756 (1988), except that the retroviral vector LXSN (cf. A. D. Miller et al., BioTechniques 7, 980-990 (1989)) was used for the expression of the EGF-R cDNA and the line GP+E86 (cf. D. Markowitz et al., J. Virol. 62, 1120-1124 (1988)) was used as the packaging cell.
# F/L-HERc cells were cultivated in RPMI/1640 medium (BioWhittaker), supplemented with 10% fetal calf serum (FCS, Boehringer Mannheim), 2 mM glutamine (BioWhittaker), standard antibiotics and 20 ng/ml of human EGF (Promega), at 37° C. and 5% CO2. In order to investigate the inhibitory activity of the compounds according to the invention, 1.5×10^4 cells per well were cultivated in triplicate in 96-well dishes in the above medium (200 μl), the cell proliferation being stimulated with either EGF (20 ng/ml) or murine IL-3. The IL-3 used was obtained from culture supernatants of the cell line X63/0 mIL-3 (cf. H. Karasuyama et al., Eur. J. Immunol. 18, 97-104 (1988)). The compounds according to the invention were dissolved in 100% dimethylsulfoxide (DMSO) and added to the cultures in various dilutions, the maximum DMSO concentration being 1%. The cultures were incubated for 48 hours at 37° C.
# In order to determine the inhibitory activity of the compounds according to the invention the relative cell number was measured in O.D. units using the Cell Titer 96™ AQueous Non-Radioactive Cell Proliferation Assay (Promega). The relative cell number was calculated as a percentage of the control (F/LHERc cells without inhibitor) and the concentration of active substance which inhibits the proliferation of the cells by 50% (IC50) was derived therefrom.
# T1 sequence (P00533 25-1210): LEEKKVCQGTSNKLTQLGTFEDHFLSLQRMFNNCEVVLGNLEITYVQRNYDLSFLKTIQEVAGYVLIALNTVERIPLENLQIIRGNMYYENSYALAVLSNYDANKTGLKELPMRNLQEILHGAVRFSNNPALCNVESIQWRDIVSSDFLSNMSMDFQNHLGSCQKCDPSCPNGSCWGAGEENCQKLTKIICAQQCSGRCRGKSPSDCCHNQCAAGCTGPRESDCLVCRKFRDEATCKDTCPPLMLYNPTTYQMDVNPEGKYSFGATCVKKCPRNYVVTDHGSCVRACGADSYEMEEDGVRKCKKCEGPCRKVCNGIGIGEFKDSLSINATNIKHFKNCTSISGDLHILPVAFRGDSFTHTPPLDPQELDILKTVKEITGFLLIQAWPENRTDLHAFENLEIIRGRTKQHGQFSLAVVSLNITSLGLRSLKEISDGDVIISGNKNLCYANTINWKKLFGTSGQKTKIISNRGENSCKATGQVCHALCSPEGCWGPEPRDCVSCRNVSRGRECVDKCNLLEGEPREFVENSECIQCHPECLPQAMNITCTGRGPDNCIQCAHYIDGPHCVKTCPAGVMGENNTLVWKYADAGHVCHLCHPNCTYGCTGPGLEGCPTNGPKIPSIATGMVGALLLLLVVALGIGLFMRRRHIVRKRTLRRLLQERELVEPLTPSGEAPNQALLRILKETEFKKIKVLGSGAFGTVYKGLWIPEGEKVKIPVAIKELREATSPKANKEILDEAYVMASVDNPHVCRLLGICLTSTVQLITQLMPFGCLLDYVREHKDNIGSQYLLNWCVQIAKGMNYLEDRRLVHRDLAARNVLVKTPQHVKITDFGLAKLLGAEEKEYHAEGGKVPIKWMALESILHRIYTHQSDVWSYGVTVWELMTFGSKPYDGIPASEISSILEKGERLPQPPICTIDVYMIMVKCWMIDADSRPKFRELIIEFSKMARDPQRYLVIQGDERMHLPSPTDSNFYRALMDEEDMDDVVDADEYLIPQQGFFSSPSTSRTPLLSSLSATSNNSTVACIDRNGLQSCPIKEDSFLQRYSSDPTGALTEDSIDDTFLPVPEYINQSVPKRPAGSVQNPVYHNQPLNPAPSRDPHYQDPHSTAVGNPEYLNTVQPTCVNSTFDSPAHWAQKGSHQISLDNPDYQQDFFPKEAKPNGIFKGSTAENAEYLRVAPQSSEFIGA
row,Structure (SMILES),IC50 [nM]
1,"O=C(C=CCN1CCN(CCSC2CCOC2=O)CC1)Nc1cc2c(Nc3ccc(F)c(Cl)c3)ncnc2cc1OCC1CC1 (stereo not drawn) [Example 4, 4-[(3-chloro-4-fluorophenyl)amino]-6-{[4-(4-{2-[(2-oxotetrahydrofuran-3-yl)sulfanyl]ethyl}piperazin-1-yl)-1-oxo-2-buten-1-yl]amino}-7-cyclopropylmethoxyquinazoline]",3
2,"O=C(C=CCN1CCN(C2CCOC2=O)CC1)Nc1cc2c(Nc3ccc(F)c(Cl)c3)ncnc2cc1OCC1CC1 (stereo not drawn) [Example 1, 4-[(3-chloro-4-fluorophenyl)amino]-6-({4-[4-(2-oxotetrahydrofuran-3-yl)piperazin-1yl]-1-oxo-2-buten-1-yl}amino)-7-cyclopropylmethoxyquinazoline]",0.05
3,"O=C(C=CCN1CCN2CC(=O)OCC2C1)Nc1cc2c(Nc3ccc(F)c(Cl)c3)ncnc2cc1OCC1CC1 (stereo not drawn) [4(3), 4-[(3-chloro-4-fluorophenyl)amino]-6-{[4-(3-oxoperhydropyrazino[2,1-c][1,4]oxazin-8-yl)-1-oxo-2-buten-1-yl]amino}-7-cyclopropylmethoxyquinazoline]",10
4,"O=C(C=CCN1CCN(C2COC(=O)C2)CC1)Nc1cc2c(Nc3ccc(F)c(Cl)c3)ncnc2cc1OCC1CC1 (stereo not drawn) [Example 2, 4-[(3-chloro-4-fluorophenyl)amino]-6-({4-[4-(2-oxotetrahydrofuran-4-yl)piperazin-1-yl]-1-oxo-2-buten-1-yl}amino)-7-cyclopropylmethoxyquinazoline]",0.6

# Test system: not given
# Experiment: not given
# Settings: not given
row,Structure (SMILES),melting point [°C]
1,"O=C(C=CCN1CCN(C(=O)[C@@H]2CCC(=O)O2)CC1)Nc1cc2c(Nc3ccc(F)c(Cl)c3)ncnc2cc1OCC1CC1 [Example 3, (S)-4-[(3-chloro-4-fluorophenyl)amino]-6-[(4-{4-[(5-oxotetrahydrofuran-2-yl)carbonyl]piperazin-1-yl}-1-oxo-2-buten-1-yl)amino]-7-cyclopropylmethoxyquinazoline]",155 to 157
2,"O=C(C=CCN1CCN(C2CCOC2=O)CC1)Nc1cc2c(Nc3ccc(F)c(Cl)c3)ncnc2cc1OCC1CC1 (stereo not drawn) [Example 1, 4-[(3-chloro-4-fluorophenyl)amino]-6-({4-[4-(2-oxotetrahydrofuran-3-yl)piperazin-1yl]-1-oxo-2-buten-1-yl}amino)-7-cyclopropylmethoxyquinazoline]",130 to 131

# — US6627634B2, “Bicyclic heterocycles, pharmaceutical compositions containing them, their use, and processes for preparing them” (Boehringer Ingelheim Pharma KG, priority 2000, dated 2003)
